Test system: vector-only (V/O) CHO-K1 cells
Test: Confocal visualization on live vector-only cells with fluorescently labeled kinin peptide
Type: binding
Details: 10 µM labeled peptide, 1 min, HBSS, confocal Leica SP8
Description: Three peptides were used in this study. These included: 1) the ligand for the endogenous tick kinin receptor from Rhipicephalus sanguineus, Rhisa-kinin 8 peptide of sequence GTGEDQAFSPWGamide (Rhisa-K-8; RK8; of identical sequence to Rhimi-K-8 in Rhipicephalus microplus)[48], 2) the same peptide but fluorescently labeled at the N-terminus with tetramethylrhodamine (TMR) a red fluorescent dye, designated TMR-Rhisa-K-8 (TMR-RK8), and 3) a labeled peptide synthesized with the scrambled sequence of the kinin ligand, designated TMR-Scrambled. The sequence of TMR-RK8 was TMR-C-GTGEDQAFSPWGamide). The TMR-Scrambled kinin (TMR-C-GTQWGPGFEADSamide) served as a negative control for tissue labeling. […]
The BMLK3 and V/O cells (5000–10,000 cells) were seeded separately in 200 µL selective media onto the two chambers of the cover glass (Lab-Tek Chambered Coverglass, 4.2 cm^2 area, #1.0 German borosilicate glass, sterile, Cat # 155,380, Thermo Fisher Scientific Inc., Walthams, MA) and grown in the incubator overnight at 37 °C and 5% CO2. The next day, cells would be ready for fluorescent labeling: the selective media was replaced with 200 µL HBSS to rinse the cells. […] Images were analyzed and computer-colored using Fiji/ImageJ (National Institutes of Health, Bethesda, MD). […]

## TMR-C-GTGEDQAFSPWGamide [TMR-RK8]
  labeling of vector-only cells (in words): not labeled by either peptide

From publication PMC11091117, “A fluorescently-tagged tick kinin neuropeptide triggers peristalsis and labels tick midgut muscles” (Scientific Reports, 2024)
